Test results taken from patent EP4745135A1 (Gluetacs Therapeutics (Shanghai) Co., Ltd., priority 2023, dated 2025).

Assays:
[1] = biological target: T1, human Cereblon WT GST-tagged protein (Homo sapiens, UniProt Q96SW2); assay: CRBN-binding affinity, HTRF (CEREBLON BINDING kit); conditions: for inhibition at 0.5 µM: read-out: Inhibition Rate at 0.5 µM (%); for inhibition at 2 µM: read-out: Inhibition Rate at 2 µM (%)
T1 construct: purchased CISBIO 64BDCRBNPEH

GSPT1 = assay: Western blot, degradation of substrate protein in hPBMCs; type: cell-based, Human
CK1α = biological target: T2, CK1α (Homo sapiens, UniProt P48729+Q96SW2); assay: as above; type: cell-based
T2 construct: effects of the compounds of the present disclosure on the expression of target proteins in cells; endogenous in cells; host or cells: human PBMCs (Milecell Biotechnologies)

IKZF1 = biological target: T3, IKZF1 (Homo sapiens, UniProt Q13422+Q96SW2); assay: as above; type: cell-based
T3 construct: effects of the compounds of the present disclosure on the expression of target proteins in cells; endogenous in cells; host or cells: human PBMCs (Milecell Biotechnologies)

WEE1 = biological target: T4, WEE1 (Homo sapiens, UniProt P30291+Q96SW2); assay: as above; type: cell-based
T4 construct: effects of the compounds of the present disclosure on the expression of target proteins in cells; endogenous in cells; host or cells: human PBMCs (Milecell Biotechnologies)

IKZF3 = biological target: T5, IKZF3 (Homo sapiens, UniProt Q96SW2+Q9UKT9); assay: as above; type: cell-based
T5 construct: effects of the compounds of the present disclosure on the expression of target proteins in cells; endogenous in cells; host or cells: human PBMCs (Milecell Biotechnologies)

IKZF2 = biological target: T6, IKZF2 (Homo sapiens, UniProt Q96SW2+Q9UKS7); assay: as above; type: cell-based
T6 construct: effects of the compounds of the present disclosure on the expression of target proteins in cells; endogenous in cells; host or cells: human PBMCs (Milecell Biotechnologies)

[2] = 24 hours treatment, compounds at 50 nM and 500 nM (concentration behind the class not stated)
[3] = Western blot, 24 hours of compound treatment, compounds tested at 50 nM and 500 nM (concentration for the table not stated)

T5 sequence (Q9UKT9 whole entry): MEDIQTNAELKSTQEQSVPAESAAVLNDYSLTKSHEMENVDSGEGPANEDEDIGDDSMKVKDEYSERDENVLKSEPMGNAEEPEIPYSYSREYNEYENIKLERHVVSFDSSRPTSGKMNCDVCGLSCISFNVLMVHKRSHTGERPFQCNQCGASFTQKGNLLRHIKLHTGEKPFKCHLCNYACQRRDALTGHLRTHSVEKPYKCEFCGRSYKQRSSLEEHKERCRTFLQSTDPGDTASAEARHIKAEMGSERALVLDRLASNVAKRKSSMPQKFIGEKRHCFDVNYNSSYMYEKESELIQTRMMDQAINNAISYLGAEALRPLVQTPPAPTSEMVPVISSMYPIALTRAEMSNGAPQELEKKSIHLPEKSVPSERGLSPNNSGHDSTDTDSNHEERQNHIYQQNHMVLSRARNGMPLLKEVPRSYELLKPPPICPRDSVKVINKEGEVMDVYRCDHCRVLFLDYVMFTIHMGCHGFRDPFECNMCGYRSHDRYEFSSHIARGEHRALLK
T5 sequence (Q96SW2 whole entry): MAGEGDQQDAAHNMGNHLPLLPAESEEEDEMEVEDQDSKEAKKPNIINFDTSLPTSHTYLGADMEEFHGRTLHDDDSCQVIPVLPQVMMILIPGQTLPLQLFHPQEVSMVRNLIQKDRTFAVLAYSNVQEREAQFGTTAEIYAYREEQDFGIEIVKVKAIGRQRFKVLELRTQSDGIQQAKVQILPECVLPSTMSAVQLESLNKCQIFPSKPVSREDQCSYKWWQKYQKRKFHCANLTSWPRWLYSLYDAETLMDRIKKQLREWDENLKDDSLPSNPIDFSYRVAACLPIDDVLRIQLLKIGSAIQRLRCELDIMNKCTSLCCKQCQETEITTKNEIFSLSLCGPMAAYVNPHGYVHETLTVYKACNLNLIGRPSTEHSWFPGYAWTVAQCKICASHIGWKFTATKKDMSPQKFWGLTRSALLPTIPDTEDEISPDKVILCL
T5 sequence (Q16531 whole entry partner): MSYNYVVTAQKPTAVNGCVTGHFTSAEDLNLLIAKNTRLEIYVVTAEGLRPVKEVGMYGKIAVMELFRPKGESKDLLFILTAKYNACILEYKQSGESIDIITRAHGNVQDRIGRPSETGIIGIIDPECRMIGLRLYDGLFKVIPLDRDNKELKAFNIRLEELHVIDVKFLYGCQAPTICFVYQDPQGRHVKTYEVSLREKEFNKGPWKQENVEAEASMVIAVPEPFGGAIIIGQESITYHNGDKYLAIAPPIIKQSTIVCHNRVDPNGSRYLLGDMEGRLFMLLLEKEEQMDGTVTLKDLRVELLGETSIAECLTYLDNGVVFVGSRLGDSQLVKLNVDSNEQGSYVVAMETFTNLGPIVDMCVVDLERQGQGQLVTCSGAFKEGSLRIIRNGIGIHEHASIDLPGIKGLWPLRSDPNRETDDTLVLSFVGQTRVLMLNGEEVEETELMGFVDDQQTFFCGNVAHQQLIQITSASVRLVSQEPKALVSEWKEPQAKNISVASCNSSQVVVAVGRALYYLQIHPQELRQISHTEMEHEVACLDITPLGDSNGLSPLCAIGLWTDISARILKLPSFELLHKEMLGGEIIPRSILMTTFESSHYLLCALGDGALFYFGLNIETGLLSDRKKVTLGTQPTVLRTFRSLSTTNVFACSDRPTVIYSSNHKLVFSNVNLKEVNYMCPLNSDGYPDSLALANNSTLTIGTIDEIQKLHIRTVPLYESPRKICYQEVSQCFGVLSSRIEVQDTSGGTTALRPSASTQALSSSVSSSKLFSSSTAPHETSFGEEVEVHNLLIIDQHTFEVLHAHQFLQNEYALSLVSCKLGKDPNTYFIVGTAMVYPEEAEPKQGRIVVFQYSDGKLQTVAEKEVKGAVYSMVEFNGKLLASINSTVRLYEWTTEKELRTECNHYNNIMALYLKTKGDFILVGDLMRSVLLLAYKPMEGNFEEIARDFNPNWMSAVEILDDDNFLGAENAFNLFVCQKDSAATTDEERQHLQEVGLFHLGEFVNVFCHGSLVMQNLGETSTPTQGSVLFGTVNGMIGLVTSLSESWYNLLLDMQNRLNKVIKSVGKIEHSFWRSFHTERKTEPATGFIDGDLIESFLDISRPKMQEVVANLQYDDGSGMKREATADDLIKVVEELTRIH
T6 sequence (Q9UKS7 whole entry): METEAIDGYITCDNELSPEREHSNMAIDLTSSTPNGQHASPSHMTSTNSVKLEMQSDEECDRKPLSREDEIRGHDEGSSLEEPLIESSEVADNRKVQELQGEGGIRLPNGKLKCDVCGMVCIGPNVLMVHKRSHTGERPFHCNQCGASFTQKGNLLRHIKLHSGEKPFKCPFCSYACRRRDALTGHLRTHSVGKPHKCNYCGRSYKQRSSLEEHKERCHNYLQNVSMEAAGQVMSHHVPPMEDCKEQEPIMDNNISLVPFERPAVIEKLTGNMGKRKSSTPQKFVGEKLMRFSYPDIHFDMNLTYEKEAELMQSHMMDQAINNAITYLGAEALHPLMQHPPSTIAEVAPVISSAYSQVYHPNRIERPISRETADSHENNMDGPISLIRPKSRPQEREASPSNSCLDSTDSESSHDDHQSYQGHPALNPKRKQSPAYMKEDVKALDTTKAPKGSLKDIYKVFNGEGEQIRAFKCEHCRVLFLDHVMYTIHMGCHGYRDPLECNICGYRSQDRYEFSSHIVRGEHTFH
T6 sequence (Q96SW2 whole entry): as the sequence (Q96SW2 whole entry) above
T6 sequence (Q16531 whole entry partner): as the sequence (Q16531 whole entry partner) above
T4 sequence (P30291 whole entry): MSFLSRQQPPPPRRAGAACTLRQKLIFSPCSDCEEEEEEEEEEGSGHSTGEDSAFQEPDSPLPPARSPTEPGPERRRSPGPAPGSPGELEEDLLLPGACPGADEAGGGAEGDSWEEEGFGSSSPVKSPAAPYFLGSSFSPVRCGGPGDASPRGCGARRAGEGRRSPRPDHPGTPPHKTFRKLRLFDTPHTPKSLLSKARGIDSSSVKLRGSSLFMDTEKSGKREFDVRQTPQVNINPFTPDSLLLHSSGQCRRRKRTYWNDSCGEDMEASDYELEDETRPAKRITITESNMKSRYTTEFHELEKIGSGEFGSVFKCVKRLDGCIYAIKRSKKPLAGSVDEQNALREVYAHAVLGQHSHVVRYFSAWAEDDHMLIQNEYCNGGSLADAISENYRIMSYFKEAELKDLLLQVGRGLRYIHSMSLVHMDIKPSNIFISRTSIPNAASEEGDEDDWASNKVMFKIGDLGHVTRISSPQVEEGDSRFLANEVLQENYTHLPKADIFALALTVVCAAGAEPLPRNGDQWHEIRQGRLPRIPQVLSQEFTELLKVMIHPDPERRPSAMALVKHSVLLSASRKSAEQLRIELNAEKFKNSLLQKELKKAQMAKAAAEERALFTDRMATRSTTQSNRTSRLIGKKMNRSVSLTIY
T4 sequence (Q96SW2 whole entry): as the sequence (Q96SW2 whole entry) above
T4 sequence (Q16531 whole entry partner): as the sequence (Q16531 whole entry partner) above
T2 sequence (P48729 whole entry): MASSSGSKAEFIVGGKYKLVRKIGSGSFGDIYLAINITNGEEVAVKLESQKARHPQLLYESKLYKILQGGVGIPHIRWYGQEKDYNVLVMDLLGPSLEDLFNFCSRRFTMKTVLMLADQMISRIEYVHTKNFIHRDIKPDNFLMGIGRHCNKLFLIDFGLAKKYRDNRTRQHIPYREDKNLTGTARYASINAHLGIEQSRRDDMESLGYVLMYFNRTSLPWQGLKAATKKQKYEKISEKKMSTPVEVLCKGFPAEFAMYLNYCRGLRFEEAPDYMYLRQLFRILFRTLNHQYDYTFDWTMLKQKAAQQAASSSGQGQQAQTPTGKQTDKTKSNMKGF
T2 sequence (Q96SW2 whole entry): as the sequence (Q96SW2 whole entry) above
T2 sequence (Q16531 whole entry partner): as the sequence (Q16531 whole entry partner) above
T3 sequence (Q13422 whole entry): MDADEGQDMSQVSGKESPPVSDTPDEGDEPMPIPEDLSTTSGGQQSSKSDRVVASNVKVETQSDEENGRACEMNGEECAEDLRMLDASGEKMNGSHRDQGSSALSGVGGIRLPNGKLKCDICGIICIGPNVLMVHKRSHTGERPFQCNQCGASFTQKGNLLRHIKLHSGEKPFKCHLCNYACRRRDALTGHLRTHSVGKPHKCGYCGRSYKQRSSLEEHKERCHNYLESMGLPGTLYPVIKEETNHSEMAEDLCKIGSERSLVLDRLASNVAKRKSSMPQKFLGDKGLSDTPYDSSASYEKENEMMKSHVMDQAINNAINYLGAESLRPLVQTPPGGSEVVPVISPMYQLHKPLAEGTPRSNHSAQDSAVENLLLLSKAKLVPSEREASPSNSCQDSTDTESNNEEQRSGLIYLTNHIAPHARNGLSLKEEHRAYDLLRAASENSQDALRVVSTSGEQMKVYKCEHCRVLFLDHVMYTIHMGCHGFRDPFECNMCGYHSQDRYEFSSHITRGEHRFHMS
T3 sequence (Q96SW2 whole entry): as the sequence (Q96SW2 whole entry) above
T3 sequence (Q16531 whole entry partner): as the sequence (Q16531 whole entry partner) above
T1 sequence (Q96SW2 whole entry): as the sequence (Q96SW2 whole entry) above

SMILES | inhibition at 0.5 µM [1] [%] | inhibition at 2 µM [1] [%] | GSPT1 substrate protein remaining % (GSPT1; [2]) | CK1α substrate protein remaining % (CK1α; [2]) | IKZF 1 substrate protein remaining % (IKZF1; [2]) | Wee1 substrate protein remaining % (WEE1; [2]) | IKZF3 substrate protein remaining % (IKZF3; [2]) | IKZF2 substrate protein remaining % (IKZF2; [2]) | IC50 ([1]; CRBN binding, HTRF, 3 hours at room temperature, read-out: HTRF IC50) [nM] | GSPT1 substrate protein remaining % (GSPT1; [3]) | CK1α substrate protein remaining % (CK1α; [3]) | IKZF 1 substrate protein remaining % (IKZF1; [3]) | Wee1 substrate protein remaining % (WEE1; [3]) | IKZF3 substrate protein remaining % (IKZF3; [3]) | IKZF2 substrate protein remaining % (IKZF2; [3])
O=C1CCC(N2Cc3cc(CN4CC=C(c5ncnc6scc(-c7ccccc7)c56)CC4)ccc3C2=S)C(=O)N1 (centres unmarked) [GT-09320, 3-(5-((4-(5-phenylthieno[2,3-d]pyrimidin-4-yl)-3,6-dihydropyridin-1(2H)-yl)methyl)-1-thioxoisoindolin-2-yl)piperidine-2,6-dione] | 60 to 80 | 80 to 100 | A (0% ≤ substrate protein remaining % ≤ 80%) | B (80%< substrate protein remaining %≤ 100%) | B (80%< substrate protein remaining %≤ 100%) | A (0% ≤ substrate protein remaining % ≤ 80%) | B (80%< substrate protein remaining %≤ 100%) | B (80%< substrate protein remaining %≤ 100%) | – | – | – | – | – | – | –
Cc1ccsc1C1=CCN(Cc2ccc3c(c2)C(=S)N(C2CCC(=O)NC2=O)C3)CC1 (centres unmarked) [GT-05032, 3-(6-((4-(3-methylthiophen-2-yl)-3,6-dihydropyridin-1(2H)-yl)methyl)-1-thioxoisoindolin-2-yl)piperidine-2,6-dione] | – | – | A (0% ≤ substrate protein remaining % ≤ 80%) | B (80%< substrate protein remaining %≤ 100%) | B (80%< substrate protein remaining %≤ 100%) | B (80%< substrate protein remaining %≤ 100%) | A (0% ≤ substrate protein remaining % ≤ 80%) | B (80%< substrate protein remaining %≤ 100%) | 100 to 500 | – | – | – | – | – | –
O=C1CCC(N2Cc3c(CN4CC(N5CCc6cc(F)ccc65)C4)cccc3C2=S)C(=O)N1 (centres unmarked) [GT-08635, 3-(4-((3-(5-fluoroindolin-1-yl)azetidin-1-yl)methyl)-1-thioxoisoindolin-2-yl)piperidine-2,6-dione] | 80 to 100 | 80 to 100 | – | – | – | – | – | – | – | B (80%< substrate protein remaining %≤ 100%) | B (80%< substrate protein remaining %≤ 100%) | B (80%< substrate protein remaining %≤ 100%) | A (0% ≤ substrate protein remaining % ≤ 80%) | B (80%< substrate protein remaining %≤ 100%) | B (80%< substrate protein remaining %≤ 100%)
O=C1CCC(N2Cc3c(CN4CCN(c5nc(Cl)nc6ccsc56)CC4)cccc3C2=S)C(=O)N1 (centres unmarked) [GT-08971, 3-(4-((4-(2-chlorothieno[3,2-d]pyrimidin-4-yl)piperazin-1-yl)methyl)-1-thioxoisoindolin-2-yl)piperidine-2,6-dione] | 80 to 100 | 80 to 100 | B (80%< substrate protein remaining %≤ 100%) | B (80%< substrate protein remaining %≤ 100%) | B (80%< substrate protein remaining %≤ 100%) | A (0% ≤ substrate protein remaining % ≤ 80%) | B (80%< substrate protein remaining %≤ 100%) | B (80%< substrate protein remaining %≤ 100%) | – | – | – | – | – | – | –
O=C1CCC(N2Cc3c(CN4CCN(c5cc(F)cc(F)c5)CC4)cccc3C2=S)C(=O)N1 (centres unmarked) [GT-08632, 3-(4-((4-(3,5-difluorophenyl)piperazin-1-yl)methyl)-1-thioxoisoindolin-2-yl)piperidine-2,6-dione] | 60 to 80 | 80 to 100 | – | – | – | – | – | – | – | B (80%< substrate protein remaining %≤ 100%) | B (80%< substrate protein remaining %≤ 100%) | B (80%< substrate protein remaining %≤ 100%) | A (0% ≤ substrate protein remaining % ≤ 80%) | B (80%< substrate protein remaining %≤ 100%) | B (80%< substrate protein remaining %≤ 100%)
O=C1CCC(N2Cc3c(CN4CC=C(c5ncnc6scc(-c7ccccc7)c56)CC4)cccc3C2=S)C(=O)N1 (centres unmarked) [GT-08957, 3-(4-((4-(5-phenylthieno[2,3-d]pyrimidin-4-yl)-3,6-dihydropyridin-1(2H)-yl)methyl)-1-thioxoisoindolin-2-yl)piperidine-2,6-dione] | 60 to 80 | 80 to 100 | B (80%< substrate protein remaining %≤ 100%) | B (80%< substrate protein remaining %≤ 100%) | B (80%< substrate protein remaining %≤ 100%) | A (0% ≤ substrate protein remaining % ≤ 80%) | B (80%< substrate protein remaining %≤ 100%) | B (80%< substrate protein remaining %≤ 100%) | – | – | – | – | – | – | –
O=C1CCC(N2Cc3cc(CN4CCC(c5ncc6ccsc6n5)CC4)ccc3C2=S)C(=O)N1 (centres unmarked) [GT-09313, 3-(5-((4-(thieno[2,3-d]pyrimidin-2-yl)piperidin-1-yl)methyl)-1-thioxoisoindolin-2-yl)piperidine-2,6-dione] | 60 to 80 | 80 to 100 | A (0% ≤ substrate protein remaining % ≤ 80%) | B (80%< substrate protein remaining %≤ 100%) | A (0% ≤ substrate protein remaining % ≤ 80%) | B (80%< substrate protein remaining %≤ 100%) | B (80%< substrate protein remaining %≤ 100%) | B (80%< substrate protein remaining %≤ 100%) | – | – | – | – | – | – | –
O=C1CCC(N2Cc3cc(CN4CCN(c5cccc(F)n5)CC4)ccc3C2=S)C(=O)N1 (centres unmarked) [GT-09221, 3-(5-((4-(6-fluoropyridin-2-yl)piperazin-1-yl)methyl)-1-thioxoisoindolin-2-yl)piperidine-2,6-dione] | 80 to 100 | 80 to 100 | – | – | – | – | – | – | – | B (80%< substrate protein remaining %≤ 100%) | B (80%< substrate protein remaining %≤ 100%) | A (0% ≤ substrate protein remaining % ≤ 80%) | A (0% ≤ substrate protein remaining % ≤ 80%) | B (80%< substrate protein remaining %≤ 100%) | B (80%< substrate protein remaining %≤ 100%)
O=C1CCC(N2Cc3c(CN4CCN(c5c(F)cncc5Cl)CC4)cccc3C2=S)C(=O)N1 (centres unmarked) [GT-08802, 3-(4-((4-(3-chloro-5-fluoropyridin-4-yl)piperazin-1-yl)methyl)-1-thioxoisoindolin-2-yl)piperidine-2,6-dione] | 53 to 60 | 80 to 100 | – | – | – | – | – | – | – | B (80%< substrate protein remaining %≤ 100%) | B (80%< substrate protein remaining %≤ 100%) | B (80%< substrate protein remaining %≤ 100%) | A (0% ≤ substrate protein remaining % ≤ 80%) | B (80%< substrate protein remaining %≤ 100%) | B (80%< substrate protein remaining %≤ 100%)
CC(C)c1cc2c(C3=CCN(Cc4cccc5c4CN(C4CCC(=O)NC4=O)C5=S)CC3)ncnc2s1 (centres unmarked) [GT-08954, 3-(4-((4-(6-isopropylthieno[2,3-d]pyrimidin-4-yl)-3,6-dihydropyridin-1(2H)-yl)methyl)-1-thioxoisoindolin-2-yl)piperidine-2,6-dione] | 40 to 53 | 60 to 80 | A (0% ≤ substrate protein remaining % ≤ 80%) | B (80%< substrate protein remaining %≤ 100%) | B (80%< substrate protein remaining %≤ 100%) | A (0% ≤ substrate protein remaining % ≤ 80%) | B (80%< substrate protein remaining %≤ 100%) | B (80%< substrate protein remaining %≤ 100%) | – | – | – | – | – | – | –
O=C1CCC(N2Cc3c(CN4CC5CCC4CN5c4cccc(Cl)c4Cl)cccc3C2=S)C(=O)N1 (centres unmarked) [GT-08469, 3-(4-((5-(2,3-dichlorophenyl)-2,5-diazabicyclo[2.2.2]octan-2-yl)methyl)-1-thioxoisoindolin-2-yl)piperidine-2,6-dione] | 40 to 53 | 60 to 80 | – | – | – | – | – | – | – | A (0% ≤ substrate protein remaining % ≤ 80%) | B (80%< substrate protein remaining %≤ 100%) | B (80%< substrate protein remaining %≤ 100%) | B (80%< substrate protein remaining %≤ 100%) | B (80%< substrate protein remaining %≤ 100%) | B (80%< substrate protein remaining %≤ 100%)
O=C1CCC(N2Cc3cc(CN4CCN(c5ccccn5)CC4)ccc3C2=S)C(=O)N1 (centres unmarked) [GT-09216, 3-(5-((4-(pyridin-2-yl)piperazin-1-yl)methyl)-1-thioxoisoindolin-2-yl)piperidine-2,6-dione] | 60 to 80 | 80 to 100 | – | – | – | – | – | – | – | A (0% ≤ substrate protein remaining % ≤ 80%) | B (80%< substrate protein remaining %≤ 100%) | B (80%< substrate protein remaining %≤ 100%) | B (80%< substrate protein remaining %≤ 100%) | B (80%< substrate protein remaining %≤ 100%) | B (80%< substrate protein remaining %≤ 100%)
